Patent US6309882A, “Antisense inhibition of replication protein a p70 subunit” (ISIS Pharmaceuticals, Inc., priority 1999, dated 2001)

Test system: RPA70 mRNA
Assay: RPA70 mRNA expression in Mia Paca II cells, dose response, Northern blot
Type: cell-based, human
Settings: for % mRNA EXPRESSION / % mRNA INHIBITION: Mia Paca II
Protocol: Antisense treatments were performed with phosphorothioate oligodeoxynucleotides. Cells were cultured in 6-well plates to 60-80% confluency for use in oligonucleotide treatments. Cells were washed once with OPTI-MEM™ (Life Technologies), pre-warmed to 37° C. Transfections were carried out in 1 ml OPTI-MEM™ containing 3 μg LIPOFECTIN™ (Life Technologies) per ml of Opti-MEM™ per 100 nM added oligonucleotide. OPTI-MEM™ containing the appropriate amount of LIPOFECTIN™ was added to the cells followed by addition of oligonucleotides from 1000×stocks. (For dose-response studies oligonucleotides were added from 20×stocks.) Cells were incubated for 5 h at 37° C. Following treatment, medium was removed and replaced with pre-warmed replete media (Bennett, C. F., et al., Mol. Pharm., 1992, 41, 1023-1033; Monia, B. P., et al., Nature Medicine, 1993, 2, 668-674).
Target mRNA levels were assessed by Northern blotting with target specific random primed [α-^32 P]dCTP-labeled cDNA probes, as described below. cDNAs for probes were obtained by specific RT-PCR of cellular RNAs.
For determination of mRNA levels by Northern blot, total RNA was prepared from cells 24 h after oligonucleotide addition using a SDS-lysis method (Peppel, K. and Baglioni, C., Biotechniques, 1990, 9, 711-713). Northern analysis was performed as described (Brown, T. and Mackey, K., in Current protocols in Molecular Biology (Ausubel, F. ed.), 1987, Vol. 1, pp. 4.9.1-4.912, Greene publishing, New York). To determine RPA70 mRNA expression RNA blots were probed using a random primed [α-^32 P]dCTP-labeled cDNA probe corresponding to a 562 nucleotide sequence (1519-2081) from human RPA70 (Erdile, L. F., et al., J. Biol. Chem., 1991, 266, 12090-12098). After transfer, membranes were prehybridized with Quik-Hyb solution (Stratagene, La Jolla, Calif.) for 1 h at 68° C. and then hybridized 1-4 hours with 12.5×10^6 cpm of cDNA probe and 2 μg salmon sperm DNA carrier in a total of 10 ml of hybridization solution. Following hybridization, membranes were washed twice at room temperature for 15 min in 2×SSC/0.1% SDS and then once at 60° C. for 30 min in 0.1×SSC/0.1% SDS.
RNA on the blots was quantified by phosphorimaging on a Fuji FLA-2000. RPA70 mRNA levels are normalized to the level of RPA70 mRNA measured in cells treated with 400 nM control 20N-mer phosphorothioate oligonucleotide and expressed as percentage of control treated levels. Glyceraldehyde phosphate dehydrogenase (GAPDH) mRNA levels were probed using a random primed GAPDH cDNA generated by RT-PCR with human GAPDH primers (Stratagene, Inc., La Jolla, Calif.). […]

ISIS 12790: phosphorothioate oligodeoxynucleotide TGGTCTGCAGTTAGGGTCAG, SEQ ID NO 15, 3'-UTR 2230-2249, non-allele specific (DNA, all phosphorothioate, methylation of C not given here)
effect on RPA70 mRNA level (Mia Paca II cells (C allele)): dose-dependent decrease in RPA70 mRNA levels
% mRNA EXPRESSION (50 nM): 43%
% mRNA INHIBITION (50 nM): 57%
% mRNA EXPRESSION (100 nM): 18%
% mRNA INHIBITION (100 nM): 82%
% mRNA EXPRESSION (200 nM): 14%
% mRNA INHIBITION (200 nM): 86%
% mRNA EXPRESSION (400 nM): 20%
% mRNA INHIBITION (400 nM): 80%
